In test [1] the test system is M. tuberculosis. Briefly: Extracellular activity against M. tuberculosis in cholesterol media (Alamar Blue reduction assay). It is filed as cell-based, Mycobacterium tuberculosis.
In test [2] the test system is non-replicating M. tuberculosis. Nature of the test: Hu Coats 100-day old culture model. To be noted: added to PB, 50 μM.
In test [3] the test system is Mtb in macrophages. Nature of the test: Inhibition of Mtb replication in macrophages (intramacrophage EC50). It is filed as cell-based, Mycobacterium tuberculosis. To be noted: Table S2; read-out: Macrophages EC50.
The mark [4] stands for this setting: Mycobacterium tuberculosis, 240 h, 7H12-Cholesterol media, 10 days, read-out: Cholesterol broth: alamar blue--EC50.

Where two headings read alike, the source gives them in different places.

`Cc1nonc1CC(=O)N1CCC2(CC1)CC(c1nc(C3CCC(F)(F)CC3)no1)C2` [Compound 231, 1-(2-(3-(4,4-difluorocyclohexyl)-1,2,4-oxadiazol-5-yl)-7-azaspiro[3.5]nonan-7-yl)-2-(4-methyl-1,2,5-oxadiazol-3-yl)ethan-1-one]: in test [1] (setting [4]), the EC50 was more than 10 µM.

Take `Cc1nonc1CC(=O)N1CCC2(CC1)CC(c1nc(-c3ccc(F)c(F)c3)no1)C2` [Compound 232, 1-(2-(3-(3,4-difluorophenyl)-1,2,4-oxadiazol-5-yl)-7-azaspiro[3.5]nonan-7-yl)-2-(4-methyl-1,2,5-oxadiazol-3-yl)ethan-1-one]: in test [1] (setting [4]), the EC50 came to 0.257 µM.

For `Cc1nonc1CC(=O)N1CCC2(CC1)CC(c1nc(-c3ccc(F)cc3)no1)C2` [Compound 233, 1-(2-(3-(4-fluorophenyl)-1,2,4-oxadiazol-5-yl)-7-azaspiro[3.5]nonan-7-yl)-2-(4-methyl-1,2,5-oxadiazol-3-yl)ethan-1-one], the EC50 in test [1] (setting [4]) amounted to 0.45 µM.

Take `Cc1noc(CC(=O)N2CCN(c3nc(-c4ccc(Cl)c(Cl)c4)no3)CC2)n1` [Compound 234, 1-(4-(3-(3,4-dichlorophenyl)-1,2,4-oxadiazol-5-yl)piperazin-1-yl)-2-(3-methyl-1,2,4-oxadiazol-5-yl)ethan-1-one]: in test [1] (setting [4]), the EC50 is more than 10 µM.

On to `Cc1nonc1CC(=O)N1CCN(c2nc(-c3ccc(Cl)c(Cl)c3)no2)CC1` [Compound 235, 1-(4-(3-(3,4-dichlorophenyl)-1,2,4-oxadiazol-5-yl)piperazin-1-yl)-2-(4-methyl-1,2,5-oxadiazol-3-yl)ethan-1-one], for which the EC50 in test [1] (setting [4]) came out at 0.27 µM.

As for `Cc1nonc1CC(=O)N1CCN(c2nc(-c3ccc(F)cc3)no2)CC1` [Compound 236, 1-(4-(3-(4-fluorophenyl)-1,2,4-oxadiazol-5-yl)piperazin-1-yl)-2-(4-methyl-1,2,5-oxadiazol-3-yl)ethan-1-one], in test [1] (setting [4]), the EC50 was determined as 0.649 µM.

`Cc1nonc1CC(=O)N1CCC2(CC1)CC2c1nc(-c2ccc(F)cc2)no1` (centres unmarked) [Compound 237, 1-(1-(3-(4-fluorophenyl)-1,2,4-oxadiazol-5-yl)-6-azaspiro[2.5]octan-6-yl)-2-(4-methyl-1,2,5-oxadiazol-3-yl)ethan-1-one]: in test [1] (setting [4]), the EC50 was more than 10 µM.

Turning to `Cc1noc(CC(=O)N2CCC3(CC2)CC3c2nc(-c3ccc(F)cc3)no2)n1` (centres unmarked) [Compound 238, 1-(1-(3-(4-fluorophenyl)-1,2,4-oxadiazol-5-yl)-6-azaspiro[2.5]octan-6-yl)-2-(3-methyl-1,2,4-oxadiazol-5-yl)ethan-1-one], in test [1] (setting [4]), the EC50 was more than 10 µM.

`Cc1noc(CC(=O)N2CCC3(CCC3c3nc(-c4ccc(Cl)c(Cl)c4)no3)CC2)n1` (centres unmarked) [Compound 239, 1-(1-(3-(3,4-dichlorophenyl)-1,2,4-oxadiazol-5-yl)-7-azaspiro[3.5]nonan-7-yl)-2-(3-methyl-1,2,4-oxadiazol-5-yl)ethan-1-one]: the EC50 in test [1] (setting [4]) is more than 25 µM.

As for `Cc1noc(CC(=O)N2CCC3(CCC3c3nc(-c4ccc(F)cc4)no3)CC2)n1` (centres unmarked) [Compound 240, 1-(1-(3-(4-fluorophenyl)-1,2,4-oxadiazol-5-yl)-7-azaspiro[3.5]nonan-7-yl)-2-(3-methyl-1,2,4-oxadiazol-5-yl)ethan-1-one], the EC50 in test [1] (setting [4]) is more than 10 µM.

Consider `Cc1nonc1CC(=O)N1CCC2(CCC2c2nc(-c3ccc(F)cc3)no2)CC1` (centres unmarked) [Compound 241, 1-(1-(3-(4-fluorophenyl)-1,2,4-oxadiazol-5-yl)-7-azaspiro[3.5]nonan-7-yl)-2-(4-methyl-1,2,5-oxadiazol-3-yl)ethan-1-one], for which the half-maximal effective concentration (EC50) in test [1] (setting [4]) was more than 10 µM.

`Cc1noc(CC(=O)N2CC3CC(C2)C3n2nnc(-c3ccc(F)cc3)n2)n1` (centres unmarked) [Compound 242, 1-(6-(5-(4-fluorophenyl)-2H-tetrazol-2-yl)-3-azabicyclo[3.1.1]heptan-3-yl)-2-(3-methyl-1,2,4-oxadiazol-5-yl)ethan-1-one]: the EC50 in test [1] (setting [4]) was more than 25 µM.

Take `Cc1nonc1CC(=O)N1CC2CC(C1)C2n1nnc(-c2ccc(F)cc2)n1` (centres unmarked) [Compound 243, 1-(6-(5-(4-fluorophenyl)-2H-tetrazol-2-yl)-3-azabicyclo[3.1.1]heptan-3-yl)-2-(4-methyl-1,2,5-oxadiazol-3-yl)ethan-1-one]: the EC50 in test [1] (setting [4]) is more than 10 µM.

`Cc1nonc1CC(=O)N1CCCC(n2cc(C(=O)N3CCOCC3)nn2)C1` (centres unmarked) [Compound 244, 2-(4-methyl-1,2,5-oxadiazol-3-yl)-1-(3-(4-(morpholine-4-carbonyl)-1H-1,2,3-triazol-1-yl)piperidin-1-yl)ethan-1-one]: the EC50 in test [1] (setting [4]) is more than 10 µM.

For `CCN(CC)C(=O)c1cn(C2CCCN(C(=O)Cc3nonc3C)C2)nn1` (centres unmarked) [Compound 245, N,N-diethyl-1-(1-(2-(4-methyl-1,2,5-oxadiazol-3-yl)acetyl)piperidin-3-yl)-1H-1,2,3-triazole-4-carboxamide], the half-maximal effective concentration (EC50) in test [1] (setting [4]) is more than 10 µM.

Take `Cc1nonc1CC(=O)N1CCCC(n2cc(C(=O)NCCO)nn2)C1` (centres unmarked) [Compound 246, N-(2-hydroxyethyl)-1-(1-(2-(4-methyl-1,2,5-oxadiazol-3-yl)acetyl)piperidin-3-yl)-1H-1,2,3-triazole-4-carboxamide]: the concentration for a half-maximal effect (EC50) in test [1] (setting [4]) was more than 10 µM.

In the case of `Cc1nonc1CC(=O)N1CCC2(CC1)CC(n1nnc(-c3ccc(F)cc3)n1)C2` [Compound 247, 1-(2-(5-(4-fluorophenyl)-2H-tetrazol-2-yl)-7-azaspiro[3.5]nonan-7-yl)-2-(4-methyl-1,2,5-oxadiazol-3-yl)ethan-1-one], the concentration giving a half-maximal response (EC50) in test [1] (setting [4]) came to 1.25 µM.

Take `Cc1nonc1CC(=O)N1CCCC(n2nnc(-c3ccc(F)cc3)n2)C1` (centres unmarked) [Compound 248, 1-(3-(5-(4-fluorophenyl)-2H-tetrazol-2-yl)piperidin-1-yl)-2-(4-methyl-1,2,5-oxadiazol-3-yl)ethan-1-one]: the EC50 in test [1] (setting [4]) is more than 10 µM.

As to `Cc1nonc1CC(=O)N1CC2CCC(C1)C2c1nc(-c2ccc(F)cc2)no1` (centres unmarked) [Compound 249, 1-(8-(3-(4-fluorophenyl)-1,2,4-oxadiazol-5-yl)-3-azabicyclo[3.2.1]octan-3-yl)-2-(4-methyl-1,2,5-oxadiazol-3-yl)ethan-1-one], the EC50 in test [1] (setting [4]) came out at 1.29 µM.

For `Cc1nonc1CC(=O)N1CCN(c2ncn(-c3ccc(F)cc3)n2)CC1` [Compound 250, 1-(4-(1-(4-fluorophenyl)-1H-1,2,4-triazol-3-yl)piperazin-1-yl)-2-(4-methyl-1,2,5-oxadiazol-3-yl)ethan-1-one], the EC50 in test [1] (setting [4]) was more than 10 µM.

Regarding `Cc1nonc1NC(=O)C1CCC(c2nc(-c3ccc(F)cc3)no2)CC1` (centres unmarked) [Compound 251, 4-(3-(4-fluorophenyl)-1,2,4-oxadiazol-5-yl)-N-(4-methyl-1,2,5-oxadiazol-3-yl)cyclohexane-1-carboxamide], the EC50 in test [1] (setting [4]) was more than 10 µM.

On to `Cc1nonc1CC(=O)N1CCC(c2cnc(-c3ccc(F)cc3)nc2)CC1` [Compound 252, 1-(4-(2-(4-fluorophenyl)pyrimidin-5-yl)piperidin-1-yl)-2-(4-methyl-1,2,5-oxadiazol-3-yl)ethan-1-one], for which, in test [1] (setting [4]), the EC50 came out at 2.91 µM.

For the molecule `Cc1nonc1CC(=O)N1CCC(c2ncc(-c3ccc(F)cc3)cn2)CC1` [Compound 253, 1-(4-(5-(4-fluorophenyl)pyrimidin-2-yl)piperidin-1-yl)-2-(4-methyl-1,2,5-oxadiazol-3-yl)ethan-1-one], the EC50 in test [1] (setting [4]) is more than 10 µM.

As for `Cc1cccc(OC2CCN(C(=O)Cc3nonc3C)CC2)c1C` [Compound 254, 1-(4-(2,3-dimethylphenoxy)piperidin-1-yl)-2-(4-methyl-1,2,5-oxadiazol-3-yl)ethan-1-one], in test [1] (setting [4]), the EC50 was more than 10 µM.

Consider `Cc1nonc1CC(=O)N1CCC(c2ccc(-c3ccc(F)cc3)nn2)CC1` [Compound 255, 1-(4-(6-(4-fluorophenyl)pyridazin-3-yl)piperidin-1-yl)-2-(4-methyl-1,2,5-oxadiazol-3-yl)ethan-1-one], for which the concentration for a half-maximal effect (EC50) in test [1] (setting [4]) is more than 10 µM.

Take `Cc1nonc1CC(=O)N1CCCC(c2nc(-c3ccc(F)cc3)no2)C1` (centres unmarked) [Compound 256, 1-(3-(3-(4-fluorophenyl)-1,2,4-oxadiazol-5-yl)piperidin-1-yl)-2-(4-methyl-1,2,5-oxadiazol-3-yl)ethan-1-one]: in test [1] (setting [4]), the EC50 was more than 10 µM.

Consider `Cc1nonc1CC(=O)N1CC(c2nc(-c3ccc(F)cc3)no2)C1` [Compound 257, 1-(3-(3-(4-fluorophenyl)-1,2,4-oxadiazol-5-yl)azetidin-1-yl)-2-(4-methyl-1,2,5-oxadiazol-3-yl)ethan-1-one], for which the EC50 in test [1] (setting [4]) was more than 10 µM.

As for `Cc1nonc1CC(=O)N1CCC2(CCC2n2nnc(-c3ccc(F)cc3)n2)CC1` (centres unmarked) [Compound 258, 1-(1-(5-(4-fluorophenyl)-2H-tetrazol-2-yl)-7-azaspiro[3.5]nonan-7-yl)-2-(4-methyl-1,2,5-oxadiazol-3-yl)ethan-1-one], the EC50 in test [1] (setting [4]) was more than 25 µM.

Take `CC(=O)NC[C@H]1CN(c2ccc(N3CCOCC3)c(F)c2)C(=O)O1` [LIN, Linezolid, reference compound]: the “CFU reduction versus PB” value in test [2] is reported as “superior CFU reduction”.

`Cn1ncnc1CC(=O)N1[C@@H]2CC(c3nc(-c4ccc(Cl)c(Cl)c4)no3)C[C@H]1C2` (some centres unmarked) [mCLF025]: the EC50 is more than 30 µM in test [3] and more than 30 µM in test [1] (Table S2, read-out: Cholesterol EC50). Moreover, in test [1] (Table S2 assays), the “Potency of trans isomer in words” value was “inactive”.

The record behind these values is patent US20260048047A1, “SMALL-MOLECULE ACTIVATORS OF MYCOBACTERIUM TUBERCULOSIS ADENYLYL CYCLASE” (priority 2022, published 2026).
